For experiment [1], the system named is apyrase. Put plainly: Apyrase inhibition assay (screen for apyrase inhibitors, phosphate release read at 630 nm). The experiment is classed as biochemical. The conditions noted are these: inhibitor conc at 1 mM (10 μl added), 3 mM ATP, pH 6.5, room temperature 1 hr.
Experiment [2] deals with Brown Rust (Puccinia recondita) on wheat. Put plainly: Greenhouse crop test: control of Brown Rust on wheat in combination with commercial fungicides. Format: in vivo. The conditions noted are these: wheat JB Diego, inoculated 24 hours after treatment, evaluated at fourteen days; for Amistar (% control of the disease, compound + fungicide): with Amistar 0.04 L/ha; for Balaya (% control of the disease, compound + fungicide): with Balaya 0.25 L/ha; for Imtrex (% control of the disease, compound + fungicide): with Imtrex 0.45 L/ha; for Proline (% control of the disease, compound + fungicide): with Proline 0.15 L/ha. How it is done:
In this method, exemplary compounds were evaluated for their ability to control Brown Rust (Puccinia recondita) on wheat in a controlled greenhouse environment in combination with one of four fungicides, Amistar, Imtrex, Proline or Balaya. In these studies, wheat plants (JB Diego) were used. Seeds were sown in 9 cm diameter pots to a depth of 1 to 2 cm using Petersfield potting compost (75% medium grade peat, 12% screened sterilized loam, 3% medium grade vermiculite, 10% grit (5 mm screened, lime free), 1.5 kg PG mix per m3, lime to pH5.5-6.0 and wetting agent (Vitax Ultrawet 200 ml per m3) and germinated/grown at 23 C under a 16 h day/8 h night light regime. Plants were treated two to three weeks after sowing when they were at the BBCH 11 growth stage ([…]). Wheat plants were inoculated with Puccinia triticina (Brown rust) 24 hours after treatment. A track sprayer was used to treat the plants with the mixture of commercial fungicide and test compound using a water volume of 200 L/ha. Four replicates were used for each combination of fungicide, pathogen and test compound. Each plant was evaluated at fourteen days (once the disease symptoms were fully expressed) for % control of the disease. Appropriate controls were used for all experiments, including an ‘inoculation check’ wherein plants were inoculated with their specific pathogen to assess disease levels. Also, each commercial fungicide was tested on its own as a part of each treatment, this being benchmark against which the experimental compounds were evaluated. […] That is, the present compounds, although not fungicidal by themselves, enhance the activity of fungicides, thus the enhancer compounds work synergistically in combination with fungicides to control disease. • Amistar (0.04 L/ha) • Imtrex (0.45 L/ha) • Proline (0.15 L/ha) • Balaya (0.25 L/ha)

The subject of experiment [3] is Amaranthus retroflexus (pigweed). Put plainly: Enhancement of herbicide activity: pre-emergence Amaranthus kill with metribuzin. Format: in vivo. The following applies: Amaranthus retroflexus. Here is the method: Specifically, Amaranthus retroflexus (pigweed) was treated pre-emergence with metribuzin alone or in combination with an enhancer compound disclosed herein. Fifteen seeds of Amaranthus retroflexus were sown in soil in each pot and then sprayed with a mixture of metribuzin at the appropriate rate shown in Table 5 and the compound of this invention at 100 g/ha using a track sprayer at a water volume of 200 L/hectare. Small amounts of acetone were used to aid solubility. The pots were watered immediately after sowing and treatment and then allowed to stand in a glasshouse. Assessment of kill was made seven and fourteen days after treatment. The test included four replicates for each treatment and the control.

Read-outs that look alike come from different tables or passages of the source.

`O=S(=O)(Nc1ccc2c(c1)CCCN2)c1ccc(-c2ccccc2)cc1` [Compound A-99, N-(1,2,3,4-tetrahydroquinolin-6-yl)-[1,1′-biphenyl]-4-sulfonamide]: the Inhibition entry in experiment [1] is reported as “A (A is inhibition above 30%)”. In addition, in experiment [2], the “Amistar (% control of the disease, compound + fungicide)” value is on record as 71.4%; the “Balaya (% control of the disease, compound + fungicide)” value was found to be 84.1%; the “Imtrex (% control of the disease, compound + fungicide)” value was 16.1%; the “Proline (% control of the disease, compound + fungicide)” value is given as 5.7%.

Take `Cc1ccc(C)c(NS(=O)(=O)c2ccc(-c3ccccc3)cc2)c1` [Compound A-5, N-(2,5-dimethylphenyl)-[1,1′-biphenyl]-4-sulfonamide]: the Inhibition result in experiment [1] is recorded as “A (A is inhibition above 30%)”. In experiment [2], the “Amistar (% control of the disease, compound + fungicide)” value was 89.2%; the “Balaya (% control of the disease, compound + fungicide)” value is reported as 13.0%; the “Imtrex (% control of the disease, compound + fungicide)” value was found to be 24.3%; the “Proline (% control of the disease, compound + fungicide)” value was found to be 15.1%.

For `Cc1ccccc1NS(=O)(=O)c1ccc(-c2ccccc2)cc1` [Compound A-9, N-(o-tolyl)-[1,1′-biphenyl]-4-sulfonamide], the Inhibition result in experiment [1] is recorded as “A (A is inhibition above 30%)”. Moreover, in experiment [2], the “Amistar (% control of the disease, compound + fungicide)” value is given as 65.5%; the “Balaya (% control of the disease, compound + fungicide)” value is listed as 54.9%; the “Imtrex (% control of the disease, compound + fungicide)” value is listed as −13.9%; the “Proline (% control of the disease, compound + fungicide)” value worked out at 12.4%.

Take `CN(c1ccccc1)S(=O)(=O)c1ccc(-c2ccccc2)cc1` [Compound A-10, N-methyl-N-phenyl-[1,1′-biphenyl]-4-sulfonamide]: the Inhibition entry in experiment [1] is recorded as “A (A is inhibition above 30%)”. In experiment [2], the “Amistar (% control of the disease, compound + fungicide)” value worked out at 87.4%; the “Balaya (% control of the disease, compound + fungicide)” value stood at 56.5%; the “Imtrex (% control of the disease, compound + fungicide)” value is 15.0%; the “Proline (% control of the disease, compound + fungicide)” value amounted to 4.2%.

`CSc1nnc(C(C)(C)C)c(=O)n1N` [None (metribuzin only), metribuzin, reference compound]: the pest or weed control at 100 g/ha was 0% in experiment [3] (168 h, read-out: Pre-Emergence Amaranthus Kill Percentage, Assessed 7 DAT, Metribuzin rate 50 g/ha); 15.2% in experiment [3] (168 h, read-out: Pre-Emergence Amaranthus Kill Percentage, Assessed 7 DAT, Metribuzin rate 100 g/ha); 60.9% in experiment [3] (168 h, read-out: Pre-Emergence Amaranthus Kill Percentage, Assessed 7 DAT, Metribuzin rate 200 g/ha); 7.7% in experiment [3] (336 h, read-out: Pre-Emergence Amaranthus Kill Percentage, Assessed 14 DAT, Metribuzin rate 50 g/ha); 38.3% in experiment [3] (336 h, read-out: Pre-Emergence Amaranthus Kill Percentage, Assessed 14 DAT, Metribuzin rate 100 g/ha); 74% in experiment [3] (336 h, read-out: Pre-Emergence Amaranthus Kill Percentage, Assessed 14 DAT, Metribuzin rate 200 g/ha).

Turning to `O=S(=O)(Nc1cccc(Cl)c1N1CCOCC1)c1ccc(-c2ccccc2)cc1` [Compound A-116, N-(3-chloro-2-morpholinophenyl)-[1,1′-biphenyl]-4-sulfonamide], the Inhibition entry in experiment [1] is given as “A (A is inhibition above 30%)”. Further, in experiment [2], the “Amistar (% control of the disease, compound + fungicide)” value came out at 68.0%; the “Balaya (% control of the disease, compound + fungicide)” value was 24.2%; the “Imtrex (% control of the disease, compound + fungicide)” value is given as 48.4%; the “Proline (% control of the disease, compound + fungicide)” value worked out at 14.6%.

As for `Cc1cccc(NS(=O)(=O)c2ccc(C3CCCCC3)cc2)c1` [Compound A-64, 4-cyclohexyl-N-(m-tolyl)benzenesulfonamide], the Inhibition result in experiment [1] was “A (A is inhibition above 30%)”. Moreover, in experiment [2], the “Amistar (% control of the disease, compound + fungicide)” value amounted to 69.5%; the “Balaya (% control of the disease, compound + fungicide)” value is given as −75.9%; the “Imtrex (% control of the disease, compound + fungicide)” value is reported as −15.4%; the “Proline (% control of the disease, compound + fungicide)” value worked out at 2.9%.

As to `CCCc1ccc(S(=O)(=O)Nc2ccc(F)c(NC(C)=O)c2)cc1` [Compound A-35, N-(2-fluoro-5-((4-propylphenyl)sulfonamido)phenyl)acetamide], the Inhibition result in experiment [1] is “D (D is inhibition of 0% to 10%)”.

Regarding `CCCc1ccc(S(=O)(=O)Nc2ccccc2Sc2nncn2C)cc1` [Compound A-27, N-(2-((4-methyl-4H-1,2,4-triazol-3-yl)thio)phenyl)-4-propylbenzenesulfonamide], the Inhibition result in experiment [1] is “D (D is inhibition of 0% to 10%)”.

`CCCc1ccc(S(=O)(=O)Nc2ccc(C(=O)N(CC)CC)cc2)cc1` [Compound A-78, N,N-diethyl-4-((4-propylphenyl)sulfonamido) benzamide]: the Inhibition entry in experiment [1] is given as “D (D is inhibition of 0% to 10%)”.

For `CCCc1ccc(S(=O)(=O)Nc2ccc(CC(C)C(=O)O)cc2)cc1` (stereo not shown) [Compound A-19, 2-methyl-3-(4-((4-propylphenyl)sulfonamido)phenyl)propanoic acid], the Inhibition entry in experiment [1] is “B (B is inhibition from 20% to 30%)”.

Regarding `O=S(=O)(NCc1ccc2c(c1)OCO2)c1ccc(-c2ccccc2)cc1` [Compound A-36, N-(benzo[d][1,3]dioxol-5-ylmethyl)-[1,1′-biphenyl]-4-sulfonamide], the Inhibition result in experiment [1] is “A (A is inhibition above 30%)”.

For the compound `CCCc1ccc(S(=O)(=O)Nc2ccc(F)cc2C(=O)O)cc1` [Compound A-43, 5-fluoro-2-((4-propylphenyl)sulfonamido) benzoic acid], the Inhibition result in experiment [1] is on record as “C (C is inhibition from 10% to 20%)”.

For `CCCc1ccc(S(=O)(=O)Nc2cccc(NC(C)=O)c2)cc1` [Compound A-77, N-(3-((4-propylphenyl)sulfonamido)phenyl)acetamide], the Inhibition entry in experiment [1] is “D (D is inhibition of 0% to 10%)”.

As for `CCCc1ccc(S(=O)(=O)Nc2ccc3[nH]ncc3c2)cc1` [Compound A-69, N-(1H-indazol-5-yl)-4-propylbenzenesulfonamide], the Inhibition result in experiment [1] was “D (D is inhibition of 0% to 10%)”.

With `Cc1cccc(NS(=O)(=O)c2ccc(S(=O)(=O)N3CCCC3)cc2)c1` [Compound A-60, 4-(pyrrolidin-1-ylsulfonyl)-N-(m-tolyl)benzenesulfonamide], the Inhibition result in experiment [1] is “D (D is inhibition of 0% to 10%)”.

With `CCCc1ccc(S(=O)(=O)Nc2ccccc2N2CCCC2=O)cc1` [Compound A-6, N-(2-(2-oxopyrrolidin-1-yl)phenyl)-4-propylbenzenesulfonamide], the Inhibition result in experiment [1] is “D (D is inhibition of 0% to 10%)”.

With `CCCc1ccc(S(=O)(=O)Nc2cccc([N+](=O)[O-])c2)cc1` [Compound A-70, N-(3-nitrophenyl)-4-propylbenzenesulfonamide], the Inhibition result in experiment [1] is reported as “C (C is inhibition from 10% to 20%)”.

For the compound `COc1ccc(OC)c(NS(=O)(=O)c2ccc(-c3ccccc3)cc2)c1` [Compound A-4, N-(2,5-dimethoxyphenyl)-[1,1′-biphenyl]-4-sulfonamide], in experiment [1], the Inhibition result is “B (B is inhibition from 20% to 30%)”.

Regarding `CCCc1ccc(S(=O)(=O)Nc2c(F)cccc2CO)cc1` [Compound A-16, N-(2-fluoro-6-(hydroxymethyl)phenyl)-4-propylbenzenesulfonamide], the Inhibition result in experiment [1] was “C (C is inhibition from 10% to 20%)”.

For `CCCc1ccc(S(=O)(=O)Nc2ccc(N3CCCS3(=O)=O)cc2)cc1` [Compound A-30, N-(4-(1,1-dioxidoisothiazolidin-2-yl)phenyl)-4-propylbenzenesulfonamide], the Inhibition result in experiment [1] is recorded as “C (C is inhibition from 10% to 20%)”.

For `CCCc1ccc(S(=O)(=O)Nc2ccc(C(N)=O)cc2)cc1` [Compound A-81, 4-((4-propylphenyl)sulfonamido) benzamide], the Inhibition entry in experiment [1] is “D (D is inhibition of 0% to 10%)”.

Consider `CCCc1ccc(S(=O)(=O)Nc2ccccc2Cn2cncn2)cc1` [Compound A-113, N-(2-((1H-1,2,4-triazol-1-yl)methyl)phenyl)-4-propylbenzenesulfonamide], for which the Inhibition entry in experiment [1] is recorded as “D (D is inhibition of 0% to 10%)”.

Values taken from patent US20250275539A1, “APYRASE INHIBITORS” (Texas Crop Science, Inc., priority 2024, published 2025).
